# How the values were obtained:
# ducksalad [1] = assay: Test B flooded paddy test; type: in vivo, Heteranthera limosa; conditions: 1000 g ai/ha, visual rating, scale 0 to 100 (0 no effect, 100 complete control), 13 to 15 days
# Summary of the method: (§1)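 Postemergence plants were sprayed with formulated test chemicals at 2 to 18 cm height (1- to 4-leaf stage); paddy species were grown to the 2-leaf stage. After 13 to 15 days in a greenhouse, injury was rated visually against untreated controls on a 0–100 scale (0 = no effect, 100 = complete control).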
# cocklebur = assay: Test B pre-/postemergence herbicide test; type: in vivo, Xanthium strumarium; conditions: for Cocklebur plant response rating: postemergence, scale 0 (no effect) to 100 (complete control)
# Summary of the method: (§2)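 Seeds were planted and treated preemergence with compounds formulated in a non-phytotoxic solvent mixture containing surfactant, while plants at the 1- to 4-leaf stage (2 to 18 cm) received postemergence sprays. Flooded paddy plants were grown to the 2-leaf stage. After 13 to 15 days in a greenhouse, injury was visually rated 0–100 against untreated controls.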
# morningglory = assay: Test B pre-/postemergence herbicide test; type: in vivo, Ipomoea coccinea; conditions: for Morningglory plant response rating: postemergence, visual rating, scale 0 (no effect) to 100 (complete control)
# Summary of the method: as §2
# blackgrass = assay: Test B postemergence herbicide test; type: in vivo, Alopecurus myosuroides; conditions: postemergence, visual rating, scale 0 (no effect) to 100 (complete control)
# Summary of the method: as §1
# large crabgrass = assay: Test B pre-/postemergence herbicide test; type: in vivo, Digitaria sanguinalis; conditions: for Crabgrass, Large plant response rating: postemergence, scale 0 (no effect) to 100 (complete control)
# Summary of the method: (§3)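 Visual rating, 0 (no effect) to 100 (complete control), versus untreated controls after 13–15 d in greenhouse. Pre- and postemergence applications (postemergence plants 2–18 cm, 1–4 leaves); flooded paddy arm at 2-leaf stage. Compounds in non-phytotoxic solvent plus surfactant.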
# barnyardgrass [2] = assay: Test B pre-/postemergence herbicide test; type: in vivo, Echinochloa crus-galli; conditions: for Barnyardgrass plant response rating: postemergence, scale 0 (no effect) to 100 (complete control)
# Summary of the method: as §2
# rice [3] = assay: Test B pre-/postemergence herbicide test; type: in vivo, Oryza sativa; conditions: 0 = no effect, 100 = complete control, preemergence
# Summary of the method: as §3
# rice [4] = assay: Test C flooded paddy test; type: in vivo, Oryza sativa
# Summary of the method: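 Plants were grown to the 1- to 4-leaf stage (2–18 cm) and then treated postemergence, or grown to the 2-leaf stage for the flooded paddy test. They were held in a greenhouse for 12 to 14 days and then scored by eye against controls, where 0 is no effect and 100 is complete control.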
# [5] = system: small flower umbrella sedge; assay: Test B flooded paddy test; type: in vivo, Cyperus difformis; conditions: 1000 g ai/ha, visual rating, scale 0 to 100 (0 no effect, 100 complete control), 13 to 15 days
# Summary of the method: as §1
# corn = assay: Test B pre-/postemergence herbicide test; type: in vivo, Zea mays; conditions: for Corn plant response rating: postemergence, scale 0 (no effect) to 100 (complete control)
# Summary of the method: as §3
# lambsquarters = assay: Test B pre-/postemergence herbicide test; type: in vivo, Chenopodium album; conditions: for Lambsquarters plant response rating: postemergence, scale 0 (no effect) to 100 (complete control)
# Summary of the method: as §3
# ducksalad [6] = assay: Test C flooded paddy test; type: in vivo, Heteranthera limosa
# rice [7] = assay: Test B flooded paddy test; type: in vivo, Oryza sativa; conditions: 1000 g ai/ha, visual rating, scale 0 to 100 (0 no effect, 100 complete control), 13 to 15 days
# Summary of the method: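 Read-out: visual comparison with controls, scored 0 to 100, where 100 means complete control and 0 no effect. Formulated chemicals were applied postemergence to plants 2–18 cm tall (1- to 4-leaf), or to flooded-paddy plants at the 2-leaf stage, then held 13 to 15 days under glass.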
# wild oat = assay: Test B postemergence herbicide test; type: in vivo, Avena fatua; conditions: postemergence, visual rating, scale 0 (no effect) to 100 (complete control)
# Summary of the method: (§4)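 Scale 0–100: zero equals no visible effect, 100 complete control, judged by eye relative to controls. Timing: 13 to 15 days in greenhouse post-treatment. Growth stage at spraying: two leaves (paddy) or one to four leaves, 2–18 cm (postemergence).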
# Surinam grass = assay: Test B pre-/postemergence herbicide test; type: in vivo, Urochloa decumbens; conditions: for Surinam Grass plant response rating: postemergence, scale 0 (no effect) to 100 (complete control)
# Summary of the method: as §3
# pigweed = assay: Test B pre-/postemergence herbicide test; type: in vivo, Amaranthus retroflexus; conditions: for Pigweed plant response rating: postemergence, scale 0 (no effect) to 100 (complete control)
# Summary of the method: as §3
# giant foxtail = assay: Test B pre-/postemergence herbicide test; type: in vivo, Setaria faberi; conditions: for Foxtail, Giant plant response rating: postemergence, scale 0 (no effect) to 100 (complete control)
# Summary of the method: as §3
# wheat = assay: Test B postemergence herbicide test; type: in vivo, Triticum aestivum; design: key to Wheat plant response rating: 0 = no effect, 100 = complete control; conditions: postemergence, visual rating, scale 0 (no effect) to 100 (complete control)
# Summary of the method: as §4
# velvetleaf = assay: Test B pre-/postemergence herbicide test; type: in vivo, Abutilon theophrasti; conditions: for Velvetleaf plant response rating: postemergence, scale 0 (no effect) to 100 (complete control)
# Summary of the method: as §3
# [8] = system: smallflower umbrella sedge; assay: Test C flooded paddy test; type: in vivo, Cyperus difformis
# barnyardgrass [9] = assay: Test B flooded paddy test; type: in vivo, Echinochloa crus-galli; conditions: 1000 g ai/ha, visual rating, scale 0 to 100 (0 no effect, 100 complete control), 13 to 15 days
# Summary of the method: as §1
# barnyardgrass [10] = assay: Test C flooded paddy test; type: in vivo, Echinochloa crus-galli
# Summary of the method: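 Scoring by eye, 12–14 days post-treatment, greenhouse-held plants vs. controls; 0 no effect, 100 complete control. Sprayed at 1–4 leaves (2–18 cm); paddy barnyardgrass at 2 leaves, flooded.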
# [11] = 125 g ai/ha, 0 = no effect, 100 = complete control, preemergence
# [12] = 500 g ai/ha, visual rating, 0 = no effect, 100 = complete control, preemergence
# [13] = 62 g ai/ha, scale 0 to 100 (0 no effect, 100 complete control)
# [14] = 125 g ai/ha, scale 0 to 100 (0 no effect, 100 complete control)
# [15] = 250 g ai/ha, scale of 0 to 100, 0 is no effect, 100 is complete control
# [16] = 500 g ai/ha, visual rating after 12 to 14 days, scale 0 to 100 (0 no effect, 100 complete control)
structure (smiles),measurement,setting,value
CCNC(=O)c1cccc(NC(=O)c2nn(C(C)(C)C)cc2Cl)c1 [Compound 219],Ducksalad plant response rating,ducksalad [1],80
same,Cocklebur plant response rating (0 to 100 scale),cocklebur; [11],0
same,"Plant response rating, Cocklebur",cocklebur; [12],0
same,Cocklebur plant response rating,"cocklebur; 125 g ai/ha, visual rating",0
same,Cocklebur plant response rating,"cocklebur; 500 g ai/ha, visual rating",20
same,Morningglory plant response rating (0 to 100 scale),morningglory; [11],0
same,Morningglory plant response rating,morningglory; 125 g ai/ha,0
same,Morningglory plant response rating,morningglory; 500 g ai/ha,60
same,Blackgrass plant response rating,blackgrass; 125 g ai/ha,0
same,Blackgrass plant response rating,blackgrass; 500 g ai/ha,0
same,"Crabgrass, Large plant response rating (0 to 100 scale)",large crabgrass; [11],0
same,"Plant response rating, Crabgrass, Large",large crabgrass; [12],100
same,"Crabgrass, Large plant response rating","large crabgrass; 125 g ai/ha, visual rating",0
same,"Crabgrass, Large plant response rating","large crabgrass; 500 g ai/ha, visual rating",10
same,Barnyardgrass plant response rating (0 to 100 scale),barnyardgrass [2]; [11],0
same,"Plant response rating, Barnyardgrass",barnyardgrass [2]; [12],20
same,Barnyardgrass plant response rating,"barnyardgrass [2]; 125 g ai/ha, visual rating",0
same,Barnyardgrass plant response rating,"barnyardgrass [2]; 500 g ai/ha, visual rating",0
same,Rice plant response rating (0 to 100 scale),rice [3]; 125 g ai/ha,0
same,"Plant response rating, Rice","rice [3]; 500 g ai/ha, visual rating",0
same,Rice plant response rating,rice [4]; [13],0
same,Rice plant response rating,rice [4]; [14],0
same,Rice plant response rating,rice [4]; [15],0
same,"Plant response rating, Rice",rice [4]; [16],0
same,"Sedge, Umbrella plant response rating",[5],80
same,Corn plant response rating (0 to 100 scale),corn; [11],0
same,"Plant response rating, Corn",corn; [12],0
same,Corn plant response rating,"corn; 125 g ai/ha, visual rating",0
same,Corn plant response rating,"corn; 500 g ai/ha, visual rating",10
same,Lambsquarters plant response rating (0 to 100 scale),lambsquarters; [11],0
same,"Plant response rating, Lambsquarters",lambsquarters; [12],0
same,Lambsquarters plant response rating,"lambsquarters; 125 g ai/ha, visual rating",0
same,Lambsquarters plant response rating,"lambsquarters; 500 g ai/ha, visual rating",10
same,Ducksalad plant response rating,ducksalad [6]; [14],0
same,Ducksalad plant response rating,ducksalad [6]; [15],0
same,"Plant response rating, Ducksalad",ducksalad [6]; [16],0
same,Rice plant response rating,rice [7],0
same,"Oat, Wild plant response rating",wild oat; 125 g ai/ha,0
same,"Oat, Wild plant response rating",wild oat; 500 g ai/ha,0
same,Surinam Grass plant response rating (0 to 100 scale),Surinam grass; [11],0
same,"Plant response rating, Surinam Grass",Surinam grass; [12],0
same,Surinam Grass plant response rating,"Surinam grass; 125 g ai/ha, visual rating",0
same,Surinam Grass plant response rating,"Surinam grass; 500 g ai/ha, visual rating",10
same,Pigweed plant response rating (0 to 100 scale),pigweed; [11],0
same,"Plant response rating, Pigweed",pigweed; [12],80
same,Pigweed plant response rating,"pigweed; 125 g ai/ha, visual rating",10
same,Pigweed plant response rating,"pigweed; 500 g ai/ha, visual rating",20
same,"Foxtail, Giant plant response rating (0 to 100 scale)",giant foxtail; [11],0
same,"Plant response rating, Foxtail, Giant",giant foxtail; [12],0
same,"Foxtail, Giant plant response rating","giant foxtail; 125 g ai/ha, visual rating",0
same,"Foxtail, Giant plant response rating","giant foxtail; 500 g ai/ha, visual rating",10
same,Wheat plant response rating,wheat; 125 g ai/ha,0
same,Wheat plant response rating,wheat; 500 g ai/ha,0
same,Velvetleaf plant response rating (0 to 100 scale),velvetleaf; [11],0
same,"Plant response rating, Velvetleaf",velvetleaf; [12],10
same,Velvetleaf plant response rating,"velvetleaf; 125 g ai/ha, visual rating",0
same,Velvetleaf plant response rating,"velvetleaf; 500 g ai/ha, visual rating",10
same,"Sedge, Umbrella plant response rating",[8]; [13],0
same,"Sedge, Umbrella plant response rating",[8]; [14],0
same,"Sedge, Umbrella plant response rating",[8]; [15],0
same,"Plant response rating, Sedge, Umbrella",[8]; [16],20
same,Barnyardgrass plant response rating,barnyardgrass [9],0
same,Barnyardgrass plant response rating,barnyardgrass [10]; [13],0
same,Barnyardgrass plant response rating,barnyardgrass [10]; [14],0
same,Barnyardgrass plant response rating,barnyardgrass [10]; [15],0
same,"Plant response rating, Barnyardgrass",barnyardgrass [10]; [16],0

# Reference: US20060069132A1, “Azolecarboxamide herbicides” (priority 2004, published 2006)
